Columns and labels:
RAW264.7 cells = assay: CCK-8 cell viability assay; type: cell-based, mouse; details: 10 μM, 24 h
Method: Cell viability was determined by CCK‐8 assay. RAW264.7 cells or mouse BMDMs cultured in a 96‐well plate were pretreated with various compounds at 10 µM or different concentrations of (+)3C‐20 for 24 h when cells reached 70% confluence and then were treated with DMEM containing 5 µL CCK‐8 reagent (A311, Vazyme, China) in a humidified atmosphere of 5% CO2 and 95% air for 1 h at 37 °C. The UV absorption values of the medium with CCK‐8 were measured at 450 nm in a ThermoFisher plate‐reader (VL0L0TD2, Waltham, USA).

mouse BMDMs = assay: LPS-induced TNF-α release in BMDMs (ELISA); type: cell-based; details: BMDM, read-out: IC50, inhibition of LPS-induced TNF-α release
Method: The anti‐inflammatory effects of all (+)‐balasubramide derivatives were evaluated in Lipopolysaccharide (LPS, L2630, Sigma–Aldrich, USA)‐induced macrophage inflammation model. RAW264.7 cells were pretreated with various compounds or (+)3C‐20 at different concentrations for 3 h, and then stimulated with LPS (100 ng mL^−1) for 2 h for the detection of pro‐inflammatory factors expressions. Similarly, following 3 h co‐incubation with (+)3C‐20, mouse BMDMs were stimulated with LPS (100 ng mL^−1) for 3 h. TNF‐α protein in the culture medium supernatant was measured by a commercial ELISA kit (#1 217 202, DAKEWE, China) following the manufacture's protocols.

[1] = biological target: T1, recombinant human VDAC1 protein (rhVDAC1) (Homo sapiens, UniProt P21796); assay: Surface plasmon resonance (SPR); type: binding
T1 construct: purchased Atagenix, China
Method: To investigate the interaction of (+)3C‐20 and recombinant human VDAC1 protein (rhVDAC1), SPR experiments were performed. The overall experimental procedures were based on previous reports and had been improved with some modifications.^[ [35] ^] Briefly, 10 µM (+)3C‐20 was printed on the 3D photo‐crosslinking chip via the Biodot AD1520 chip array printer through a C─H covalent bond connection, and DMSO was conducted as a negative control at the same time. Following the vacuum‐dying and photo‐crosslinking reaction of the chip, the surface of the chip was flowed through with different concentrations (10, 40, 160, 640, 2560 nmol L^−1) of rhVDAC1 protein in PBST at 0.5 µL s^−1 for 600 s. Then, the proteins were dissociated from the surface of the chip in Glycine‐HCl (pH 2.0) at 2 µL s^−1 for 360 s. The binding signals (RU) were detected dynamically using Berthold bScreen LB 991. The RU responses of (+)3C‐20 with rhVDAC1 protein were recorded and ranked to determine the interaction intensity level, and the binding curve and affinity data were calculated by the system according to the Langmuir binding model.

VDAC1 = biological target: T2, VDAC1 (Mus musculus, UniProt Q60932); assay: Cellular thermal shift assay (CETSA) in RAW264.7 cells; type: binding; details: 20 µM, versus DMSO
T2 construct: endogenous in cells; host or cells: RAW264.7
Method: (§1) For CETSA experiments, RAW264.7 cells were incubated with DMSO or (+)3C‐20 (20 µM) in DMEM for 3 h at standard culture conditions. After washed twice with PBS, the cells were collected and divided equally into 12 groups using PBS containing protease and phosphatase inhibitor cocktail. All the samples were heated in a module with pre‐set temperature (37–81 °C) for 3 min, and balanced at 25 °C for another 3 min. Samples were freeze‐thawed with liquid nitrogen three times to completely lyse cells. The 60 µL supernatant containing soluble protein was isolated by centrifugation (13 800 × g, 20 min, 4 °C), mixed with 20 µL laemmli buffer (4 ×), and heated for 10 min at 95 °C. Eventually, the samples were separated by 10% SDS‐PAGE gels for immunoblotting analysis. For ITDRF experiments, the procedures and details were similar to CETSA experiments. In brief, the RAW264.7 cells were seeded in 6‐well plates, incubated with different concentrations of (+)3C‐20, and heated at a designed temperature.

VDAC2 = biological target: T3, VDAC2 (Mus musculus, UniProt Q60930); assay: as above; type: binding; details: 20 µM
T3 construct: endogenous in cells; host or cells: RAW264.7
T3 sequence (Q60930 1-295): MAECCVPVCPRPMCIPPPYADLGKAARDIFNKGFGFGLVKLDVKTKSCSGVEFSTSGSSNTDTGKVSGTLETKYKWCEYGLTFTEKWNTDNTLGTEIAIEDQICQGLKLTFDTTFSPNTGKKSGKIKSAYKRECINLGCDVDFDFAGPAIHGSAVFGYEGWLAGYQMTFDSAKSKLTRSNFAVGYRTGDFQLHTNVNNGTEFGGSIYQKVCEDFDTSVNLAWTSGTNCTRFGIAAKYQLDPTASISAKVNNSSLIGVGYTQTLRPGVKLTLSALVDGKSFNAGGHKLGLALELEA
Method: as §1

PBMCs from ALI patients = assay: Cytosolic mtDNA release in LPS-stimulated PBMCs from ALI patients; type: cell-based, human; details: 10 µM
Method: PBMCs isolation and stimulation were performed as previously described.^[ [40], [66] ^] Anticoagulated whole blood diluted equally with PBS was added to a 15 mL sterile centrifuge tube containing lymphocyte separation solution (#C0025, Beyotime, China), and centrifuged for 10 min at 2500 rpm. The layer of PBMCs at the plasma‐density gradient medium interface was transferred to a new sterile tube, dispersed with 10 mL DMEM, and centrifuged for 5 min at 800 rpm. The mononuclear cells at the bottom of the tube were resuspended in DMEM with 10% FBS at 5 × 10^5 cells/well in 24‐well plates. After discarding the supernatant, the PBMCs were incubated with DMSO or 10 µM (+)3C‐20 for 3 h in DMEM, stimulated with 100 ng mL^−1 LPS for another 3 h, and lysed with TRIzol reagent for total RNA extraction and following indicated experiments.

T1 sequence (P21796 whole entry): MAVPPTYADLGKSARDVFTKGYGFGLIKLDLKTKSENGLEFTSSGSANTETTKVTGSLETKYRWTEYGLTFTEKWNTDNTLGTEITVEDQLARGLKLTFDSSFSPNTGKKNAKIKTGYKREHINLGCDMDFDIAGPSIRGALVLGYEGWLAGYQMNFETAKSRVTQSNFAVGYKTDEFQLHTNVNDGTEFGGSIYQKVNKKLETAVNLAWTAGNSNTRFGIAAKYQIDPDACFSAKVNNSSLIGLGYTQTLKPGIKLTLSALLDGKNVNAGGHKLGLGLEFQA
T2 sequence (Q60932 14-296): as the sequence (P21796 whole entry) above, with T55N, M129V, A160S, I227V counted along it

In the case of O=C(CCc1ccc(C(F)(F)F)cc1)O[C@@H]1C(=O)NCCc2c([nH]c3ccccc23)[C@H]1c1ccc(C(F)(F)F)cc1 [(+)3C-20], the cell viability (RAW264.7 cells) is reported as 103.97 ± 3.88, the IC50 (mouse BMDMs) is reported as 3.64 µM and the Kd ([1]; hVDAC1, printed in picture of Figure 5G) is reported as 3.95 µM. For the same compound, the Kd ([1]; rhVDAC1) was roughly 3.95 µM, the “thermal stabilization of VDAC1 (CETSA)” value (VDAC1) was “significant thermal stabilization” and the “thermal stability of VDAC2 (CETSA)” value (VDAC2) was “did not improve the thermal stability”. For the same compound, the “cytosolic mtDNA release” value (PBMCs from ALI patients) was “markedly reduced”.

Reference: paper PMC11672292, “Discovery of Balasubramide Derivative with Tissue‐Specific Anti‐Inflammatory Activity Against Acute Lung Injury by Targeting VDAC1” (Advanced Science, 2024)
